Test results from patent publication US20010047099A1, “4-aminopicolinates and their use as herbicides” (priority 2000, published 2001).

Columns and labels:
Type in all cases: in vivo
[1] = test system: sicklepod (Cassia obtusifolia); assay: Range & Pasture Crop Testing (postemergence track sprayer); conditions: Table 8; salts of Compound 1; dose for 80 percent control
Outline: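 Postemergence track-sprayer application at 187 L/ha, compounds formulated in 97:3 acetone:DMSO with 0.25% X-77, five rates (X serially diluted to 1/16×). Visual percent control (0–100 scale, burn down) rated 3 weeks after treatment; GR50/GR80 derived by probit analysis.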

[2] = test system: yellow nutsedge (Cyperus esculentus); assay: Postemergence herbicidal activity; conditions: Table 3; weeds in rice; rate 250 ppm
Outline: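 Spray rate conversion: 1 ppm ≈ 1 g/Ha. The test used greenhouse seedlings (first/second true leaf) treated with a serially diluted compound spray. Control plants received carrier only. Efficacy was taken as visual injury at 2 weeks on a 0–100% scale.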

rice (Oryza sativa) = assay: Postemergence herbicidal activity, selectivity to rice; conditions: Table 3; crop (rice); rate 250 ppm
Experimental: (§1) Seeds of the desired test plant species were planted in Grace-Sierra MetroMix® 306 planting mixture, which typically has a pH of 6.0 to 6.8 and an organic matter content of about 30 percent, in plastic pots with a surface area of 64 square centimeters. When required to ensure good germination and healthy plants, a fungicide treatment and/or other chemical or physical treatment was applied. The plants were grown for 7-21 days in a greenhouse with an approximate 15 hr photoperiod which was maintained at about 23-29° C. during the day and 22-28° C. during the night. Nutrients and water were added on a regular basis and supplemental lighting was provided with overhead metal halide 1000-Watt lamps as necessary. The plants were employed for testing when they reached the first or second true leaf stage.
A weighed amount, determined by the highest rate to be tested, of each test compound was placed in a 20 mL glass vial and was dissolved in 4 mL of a 97:3 v/v (volume/volume) mixture of acetone and dimethyl sulfoxide (DMSO) to obtain concentrated stock solutions. […] The concentrated stock solutions obtained were diluted with an aqueous mixture containing acetone, water, isopropyl alcohol, DMSO, Atplus 411F crop oil concentrate, and Triton X-155 surfactant in a 48.5:39:10:1.5:1.0:0.02 v/v ratio to obtain spray solutions of known concentration. The solutions containing the highest concentration to be tested were prepared by diluting 2 mL aliquots of the stock solution with 13 mL of the mixture and lower concentrations were prepared by serial dilution of the stock solution. […]
(§2) The treated plants and control plants were placed in a greenhouse as described above and watered by sub-irrigation to prevent wash-off of the test compounds. After 2 weeks the condition of the test plants as compared with that of the untreated plants was determined visually and scored on a scale of 0 to 100 percent where 0 corresponds to no injury and 100 corresponds to complete kill.

[3] = test system: crested wheatgrass (Agropyron cristatum) (grass crop); assay: Range & Pasture Crop Testing (postemergence track sprayer); conditions: Table 9, rate 70 g/Ha, 3 weeks after treatment
[4] = test system: broadleaf dock (Rumex obtusifolia); assay: as above; conditions: Table 9; rate 70 g/Ha; 3 weeks after treatment
[5] = test system: common ragweed (Ambrosia artemisiifolia); assay: as above; conditions: Table 9; rate 70 g/Ha; 3 week evaluation
[6] = test system: wheat (Triticum aestivum); assay: Postemergence herbicidal activity, selectivity to wheat; conditions: Table 5; crop (wheat); rate 250 ppm
Experimental: as §1
A weighed amount, determined by the highest rate to be tested, of each test compound was placed in a 20 mL glass vial and was dissolved in 4 mL of a 97:3 v/v (volume/volume) mixture of acetone and dimethyl sulfoxide (DMSO) to obtain concentrated stock solutions. […] The concentrated stock solutions obtained were diluted with an aqueous mixture containing acetone, water, isopropyl alcohol, DMSO, Atplus 411F crop oil concentrate, and Triton X-155 surfactant in a 48.5:39:10:1.5:1.0:0.02 v/v ratio to obtain spray solutions of known concentration. The solutions containing the highest concentration to be tested were prepared by diluting 2 mL aliquots of the stock solution with 13 mL of the mixture and lower concentrations were prepared by serial dilution of the stock solution. Approximately 1.5 mL aliquots of each solution of known concentration were sprayed evenly onto each of the test plant pots using a DeVilbiss atomizer driven by compressed air pressure of 2 to 4 psi ([…]) to obtain thorough coverage of each plant. Control plants were sprayed in the same manner with the aqueous mixture. In this test an application rate of 1 ppm results in the application of approximately 1 g/Ha.
as §2

Structure (SMILES) | Post-emergent GR80 CASOB [1] [g/Ha] | post emergent evaluation - % control CYPES [2] [%] | post emergent evaluation - % control ORYZA (rice (Oryza sativa)) [%] | Post-emergent Evaluation - % control AGRCR [3] [%] | Post-emergent Evaluation - % control RUMOB [4] [%] | Post-emergent Evaluation - % control AMBEL [5] [%] | Post-emergent Evaluation - % control TRZAS [6] [%]
Nc1cc(Cl)nc(C(=O)O)c1Cl [Compound 1, 4-Amino-3,6-dichloropyridine-2-carboxylic acid] | 11 | 75 | 10 | – | – | – | –
COC(=O)c1nc(Cl)cc(N)c1Cl [Compound 3, methyl 4-amino-3,6-dichloropyridine-2-carboxylate] | – | – | – | 30 | 100 | 100 | –
Nc1cc(Br)nc(C(=O)O)c1Cl [Compound 14, 4-Amino-6-bromo-3-chloropyridine-2-carboxylic acid] | – | 75 | 10 | – | – | – | 0
